Source: US20160199365A1, “2-Carboxamide Cycloamino Urea Derivatives in Combination with HSP90 Inhibitors for the Treatment of Proliferative Diseases” (Novartis AG, priority 2011, published 2016)
Where two headings read alike, the source gives them in different places. Blank lines part the entries; values can stand above or below the compound they belong to.

Legend:
[1] = system: KYSE-70 tumors (esophageal squamous cell carcinoma cells); assay: KYSE-70 esophageal squamous cell carcinoma xenograft model (Example 4); assay type: in vivo, mice
Experimental: KYSE-70 tumors are established by injecting 7.5×10^6 KYSE-70 cells, which are esophageal squamous cell carcinoma cells, in 100 μl cell suspension, with a 23 gauge needle subcutaneously on the right flank of the mice. Ten (10) days after implantation, […]. When tumors are established and reach about 156 mm^3 (minimum 86 mm^3, maximum 218 mm^3) approximately 10 days after implantation, 48 animals are selected and randomized into 6 treatment groups (n=8). Placebo control is formulated as 10 ml/kg of 250 μl NMP, 750 μl PEG300, 500 μl Solutol HS15, and 1000 μl water for delivery once daily per oral (Placebo 1) and as 10 ml/kg of 2.5 ml Glucose for delivery intravenously twice a week (Placebo 2). Compound A is formulated in NMP/PEG300/Solutol HS15/water (10:30:20:40% vol/vol). The compound is fully dissolved in NMP first and water is added immediately prior to administration to animals. […] All doses of AUY922 refer to the free base equivalent. AUY922 is administered iv at a volume of 10 ml/kg, twice a week.

[2] = system: NCI-N87 tumors (human gastric carcinoma cells); assay: NCI-N87 gastric cancer xenograft model, third experiment (Example 3); assay type: in vivo, mice; settings: single agent
Experimental: Cells are harvested with trypsin (0.25% w/v)-EDTA (0.53 mM), are re-suspended in culture medium (with additives) and are counted with a Casy® system. Cell culture reagents are purchased from BioConcept (Allschwil, Switzerland). NCI-N87 tumors are established by injecting […] to 1×10^7 cells (in HBSS containing 50% v/v Matrigel) subcutaneously with a 23 Gauge needle. When tumors are established and reach between 180 and 210 mm^3, animals are randomized into treatment groups and the treatments are initiated. Compound A is formulated in NMP/PEG300/Solutol HS15/water (10:30:20:40% vol/vol) The compound is fully dissolved in NMP first and water is added immediately prior to administration to animals. […] All doses of AUY922 refer to the free base equivalent. AUY922 is administered iv at a volume of 10 ml/kg, twice a week. […] Pairwise comparisons are done using a one way ANOVA followed by Tukey's test. The level of significance of body weight change within a group between start and end of the treatment period is determined using a paired t-test. […] Calculations are performed using GraphPad Prism 4 for windows (GraphPad Software Inc.). In addition, an approximation of drug interactions is made using the method described by Clarke R., “Issues in experimental design and endpoint analysis in the study of experimental cytotoxic agents in vivo in breast cancer and other models”, Breast Cancer Res. Treat, 46, 255-78 (1997). This is applied to MV (Tumor volume). In the third efficacy experiment, the tumor model is set up as in the second experiment.

[3] = system: HGC-27 subcutaneous xenografts (human gastric carcinoma cells, PIK3CA mutation, PTEN null); assay: HGC-27 gastric cancer xenograft model in female athymic nude mice (Example 1); settings: for mean change of tumor volume: mean±SEM
Experimental: (§1) Experiments are performed in female Hsd:Athymic Nude-FoxN1^nu Nude mice approximately 8-12 weeks of age at treatment start.
(§2) HGC-27 cells, which are human gastric carcinoma cells with a PIK3CA mutation (c1624G>A, p.E542K) and PTEN null, are grown in MEM culture medium containing 1% non-essential amino acid with 10% heat-inactivated FCS, and are incubated at 37° C. in a 5% CO2 humidified atmosphere.
(§3) HGC-27 tumors are established in vivo by injection 5×10^6 cells in 200 μl (100 μl PBS+100 μl Matrigel) (Cat #354234, BD Bioscience, Bedford, Mass.) subcutaneous into the right flank of the animals. The efficacy experiments are started when the tumors reach an average size of approximately 230 mm^3 (day 12 post cell injection).
(§4) Compound A is formulated in 0.5% Methylcellulose (MC). 80 mg of Compound A is added to 16 ml of 0.5% MC, then stirred/vortexed and sonicated in water bath sonicator for 1 h to obtain 5 mg/ml homogeneous suspension. 0.5% MC is used to dilute the 5 mg/ml solution to 2.5 mg/ml and 1.25 mg/ml for dosing. Compound A or vehicle is administered orally at a volume of 10 ml/kg.
(§5) Tumor volumes are measured with calipers and determined according to the formula: length×diameter^2×π/6. Antitumor activity is expressed as T/C % which is determined according to the formula: (mean change of tumor volume of treated animals/mean change of tumor volume of control animals)×100. Regressions (%) are calculated according to the formula ((mean tumor volume at end of treatment-mean tumor volume at start of treatment)/mean tumor volume at start of treatment)×100. Body weights and tumor volumes are recorded twice a week.
(§6) Where applicable, data is presented as mean±SEM. For all tests, the level of significance is set at p<0.05. For tumor volumes, comparisons between treatment groups and vehicle control group are done using one-way ANOVA followed by Dunnett's test. Tumor volumes comparisons between treatment groups are done using Kruskal-Wallis one way ANOVA post-hoc Student Newman Kuels test or Dunn's test. In the first experiment, Compound A is orally administered daily to HGC-27 subcutaneous xenografts, tumor-bearing nude mice at a dose of 12.5 mg/kg, 25 mg/kg and 50 mg/kg.

[4] = system: HGC-27 subcutaneous xenografts; assay: HGC-27 gastric cancer xenograft model, treatment from day 20 for 14 days (Example 2); assay type: in vivo, mice
Excerpt: The procedure described in Example 1 is followed with the following modifications: Treatments are initiated on day 20 following tumor cell implantation of 5 million HCG-27 cells, when the average tumor volume is 316 mm^3 (164-485 mm^3).

[5] = system: NCI-N87 tumors (human gastric carcinoma cells); assay: NCI-N87 gastric cancer xenograft model, second experiment (Example 3); assay type: in vivo, mice; settings: single agent
Experimental: Cells are harvested with trypsin (0.25% w/v)-EDTA (0.53 mM), are re-suspended in culture medium (with additives) and are counted with a Casy® system. Cell culture reagents are purchased from BioConcept (Allschwil, Switzerland). NCI-N87 tumors are established by injecting […] to 1×10^7 cells (in HBSS containing 50% v/v Matrigel) subcutaneously with a 23 Gauge needle. When tumors are established and reach between 180 and 210 mm^3, animals are randomized into treatment groups and the treatments are initiated. Compound A is formulated in NMP/PEG300/Solutol HS15/water (10:30:20:40% vol/vol) The compound is fully dissolved in NMP first and water is added immediately prior to administration to animals. […] All doses of AUY922 refer to the free base equivalent. AUY922 is administered iv at a volume of 10 ml/kg, twice a week. […] Pairwise comparisons are done using a one way ANOVA followed by Tukey's test. The level of significance of body weight change within a group between start and end of the treatment period is determined using a paired t-test. […] Calculations are performed using GraphPad Prism 4 for windows (GraphPad Software Inc.). In addition, an approximation of drug interactions is made using the method described by Clarke R., “Issues in experimental design and endpoint analysis in the study of experimental cytotoxic agents in vivo in breast cancer and other models”, Breast Cancer Res. Treat, 46, 255-78 (1997). This is applied to MV (Tumor volume).

[6] = system: NCI-N87 tumors (human gastric carcinoma cells); assay: NCI-N87 gastric cancer xenograft model, first experiment (Example 3); assay type: in vivo, mice
Experimental: Cells are harvested with trypsin (0.25% w/v)-EDTA (0.53 mM), are re-suspended in culture medium (with additives) and are counted with a Casy® system. Cell culture reagents are purchased from BioConcept (Allschwil, Switzerland). NCI-N87 tumors are established by injecting […] to 1×10^7 cells (in HBSS containing 50% v/v Matrigel) subcutaneously with a 23 Gauge needle. When tumors are established and reach between 180 and 210 mm^3, animals are randomized into treatment groups and the treatments are initiated. Compound A is formulated in NMP/PEG300/Solutol HS15/water (10:30:20:40% vol/vol) The compound is fully dissolved in NMP first and water is added immediately prior to administration to animals. […] All doses of AUY922 refer to the free base equivalent. AUY922 is administered iv at a volume of 10 ml/kg, twice a week. […] Pairwise comparisons are done using a one way ANOVA followed by Tukey's test. The level of significance of body weight change within a group between start and end of the treatment period is determined using a paired t-test. […] Calculations are performed using GraphPad Prism 4 for windows (GraphPad Software Inc.). In addition, an approximation of drug interactions is made using the method described by Clarke R., “Issues in experimental design and endpoint analysis in the study of experimental cytotoxic agents in vivo in breast cancer and other models”, Breast Cancer Res. Treat, 46, 255-78 (1997). This is applied to MV (Tumor volume). Female athymic nude mice are treated orally once a day with 50 mg/kg Compound A, alone or in combination with 50 mg/kg of AUY922 administered intravenously twice a week. […] For compound A, B or the combination AB (with Vehicle Control group C), antagonism is predicted when the calculation AB/C>A/C×B/C, additive effect: AB/C=A/C×B/C, synergistic interactions are predicted to occur when AB/C<[…].

[7] = system: HGC-27 subcutaneous xenografts (human gastric carcinoma cells, PIK3CA mutation, PTEN null); settings: mouse, in vivo, po
Experimental: as §1, §2, §3, §4, §5, §6

[8] = Stability of Compound A dosing formulation; assay type: physicochemical; settings: room temperature
Experimental: Compound A is formulated in NMP/PEG300/Solutol HS15/water (10:30:20:40% vol/vol) The compound is fully dissolved in NMP first and water is added immediately prior to administration to animals.
Compound A is formulated in NMP/PEG300/Solutol HS15/water (10:30:20:40% vol/vol). The compound is fully dissolved in NMP first and water is added immediately prior to administration to animals.

[9] = Group 4: 50 mg/kg AUY922 intravenous twice a week
[10] = AUY922 50 mg/kg i.v. twice a week
[11] = Group 2: 12.5 mg/kg Compound A per oral once daily
[12] = Group 3: 50 mg/kg Compound A per oral once daily
[13] = Compound A 50 mg/kg orally once a day

Structure (SMILES): CCNC(=O)c1noc(-c2cc(C(C)C)c(O)cc2O)c1-c1ccc(CN2CCOCC2)cc1 [AUY922, 5-(2,4-Dihydroxy-5-isopropyl-phenyl)-4-(4-morpholin-4-ylmethyl-phenyl)-isoxazole-3-carboxylic acid ethylamide, reference compound]
T/C [%] Day 10 [1, 9]: 100.0% | T/C [%] Day 14 [1, 9]: 145.3% | T/C [%] Day 17 [1, 9]: 144.4% | T/C [%] Day 21 [1, 9]: 131.8% | T/C [%] Day 24 [1, 9]: 141.1% | T/C ([2]; AUY922 50 mg/kg): 14% | mean change of tumor volume ([2]; AUY922 50 mg/kg, ±SEM): 27.4±10.2 mm^3 | T/C % ([3]; AUY922 50 mg/kg free base i.v. twice a week): 60.5% | body weight change [3, 10]: 6.6±2.6% | mean change of tumor volume [3, 10]: 792.2±159 mm^3 | T/C ([4]; AUY922 50 mg/kg 2q.w. i.v.): 57% | T/C ([5]; AUY922 50 mg/kg i.v. twice per week): 4.7% | mean change of tumor volume ([5]; AUY922 50 mg/kg, ±SEM): 17.9±11.0 mm^3 | tumor regressions ([6]; AUY922 50 mg/kg i.v. twice a week, single agent): 7% | mean change of tumor volume ([6]; AUY922 50 mg/kg i.v. twice a week, single agent, ±SEM): −15.1±21.4 mm^3 | ΔTV AUY922 (B) ([6]; AUY922 50 mg/kg i.v. twice a week, change of tumor volume (mm^3)): −15.1 | B/C ([6]; ΔTV of AUY922 over vehicle control, Clarke method): −0.061

stability of suspension ([8]; Compound A in NMP/PEG300/Solutol HS15/water (10:30:20:40% vol/vol)): stable for one week | stability of suspension ([8]; Compound A suspension in 0.5% Methylcellulose): stable for one week
Structure (SMILES): Cc1nc(NC(=O)N2CCC[C@H]2C(N)=O)sc1-c1ccnc(C(C)(C)C(F)(F)F)c1 [Compound A, (S)-Pyrrolidine-1,2-dicarboxylic acid 2-amide 1-({4-methyl-5-[2-(2,2,2-trifluoro-1,1-dimethyl-ethyl)-pyridin-4-yl]-thiazol-2-yl}-amide)]
T/C [%] Day 10 [1, 11]: 100.0% | T/C [%] Day 14 [1, 11]: −7.1% | T/C [%] Day 17 [1, 11]: 74.0% | T/C [%] Day 21 [1, 11]: 40.6% | T/C [%] Day 24 [1, 11]: 47.5% | T/C [%] Day 10 [1, 12]: 100.0% | T/C [%] Day 14 [1, 12]: −49.3% | T/C [%] Day 17 [1, 12]: −2.7% | T/C [%] Day 21 [1, 12]: −40.1% | T/C [%] Day 24 [1, 12]: −10.9% | body weight change ([7]; 12.5 mg/kg): 5.3±1.4% | body weight change ([7]; 25 mg/kg): 2.2±1.1% | body weight change ([7]; 50 mg/kg): −1.1±1.6% | T/C ([2]; Compound A 12.5 mg/kg orally once a day): 37.8% | mean change of tumor volume (mm^3±SEM) ([2]; Compound A 12.5 mg/kg): 73.9±17.6 mm^3 | regressions [2, 13]: 6.4% | mean change of tumor volume (mm^3±SEM) ([2]; Compound A 50 mg/kg): −13.3±6.7 mm^3 | T/C % ([3]; Compound A 12.5 mg/kg p.o. once daily, 12 days, day 23): 39.4% | mean change of tumor volume ([3]; Compound A 12.5 mg/kg p.o. once daily): 515±85 mm^3 | T/C % ([3]; Compound A 25 mg/kg p.o. once daily, 12 days, day 23): 35.5% | mean change of tumor volume ([3]; Compound A 25 mg/kg p.o. once daily): 465±111 mm^3 | T/C % ([3]; Compound A 50 mg/kg p.o. once daily, 12 days, day 23): 7.1% | mean change of tumor volume ([3]; Compound A 50 mg/kg p.o. once daily): 93±77 mm^3 | T/C ([4]; Compound A 25 mg/kg q.d. p.o.): 11% | T/C ([4]; Compound A 50 mg/kg q.d. p.o.): 10% | T/C ([5]; Compound A 12.5 mg/kg orally once a day, not statistically significant): 30.3% | mean change of tumor volume (mm^3±SEM) ([5]; Compound A 12.5 mg/kg): 114.9±43.9 mm^3 | regressions [5, 13]: 1.2% | mean change of tumor volume (mm^3±SEM) ([5]; Compound A 50 mg/kg): −2.3±15.2 mm^3 | T/C ([6]; Compound A 50 mg/kg orally once a day, single agent): 4.2% | ΔTV Cmpd. A (A) ([6]; Compound A 50 mg/kg orally once a day, change of tumor volume (mm^3)): 1.4 | A/C ([6]; ΔTV of Compound A over vehicle control, Clarke method): 0.006
